Laboratory results reported in patent US20080220056A1, “Treatment for liver disease” (UNIVERSITY OF SOUTHAMPTON, priority 2002, published 2008).

Columns and labels:
[1] = system: caspase 3 activity in rat hepatic stellate cells; assay: Caspase 3 (Ac-DEVD-pNA cleavage) activity in rat hepatic stellate cells; assay type: cell-based; settings: 1.5 μmol/L, three hours, versus DMSO control
Method: Hepatic stellate cells cultured in 100 mm diameter dishes (Greiner, Frickenhausen, Germany) were harvested and pelleted by centrifugation. The medium supernatant was discarded and the cell pellet was washed in 1 mL of ice-cooled phosphate buffered saline (PBS). Caspase 3 (DEVDase) activity was determined using a colorimetric CaspACE kit (Promega, Southampton, England) using the manufacturer's instructions.
Caspase 3 (Ac-DEVD-pNA cleavage) activity was then examined in control and gliotoxin-treated hepatic stellate cells. Culture activated rat hepatic stellate cells (14 days) in 100 mm diameter plates were treated with 0.05% (vol/vol) DMSO, 1.5 μmol/L gliotoxin, 20 μmol/L Z-VAD-FMK or 200 μmol/L chlorpromazine for three hours. The cells were then harvested for examination of caspase 3 activity as outlined in the materials and methods sections.

[2] = system: human hepatic stellate cells; assay: DNA cleavage in human hepatic stellate cells (ladder, propidium iodide, TUNEL); assay type: cell-based; settings: human HSC, gliotoxin
Method: Hepatic stellate cells cultured in 35-mm diameter dishes (Greiner) were harvested, pelleted by centrifugation and DNA fragmentation determined as outlined elsewhere (Elsharkawy et al., Hepatology (1999) 30:761-769). Propidium Iodide Flow-Activated Cell Sorting Analysis Detached cells were pelleted by centrifugation, washed in PBS, and resuspended in HYPO buffer (0.1% wt/vol) Na3Citrate and 0.1% (wt/vol) Triton™ X-100 containing […] propidium iodide and incubated for 1 hour. The cells were then analyzed by fluorescence-activated cell sorter (FACS) with a Becton Dickinson (San Jose, Calif.) FACScan instrument using a 488 nm excitation wavelength with a band pass filter set at 530 nm. Attached cells were scraped in HYPO buffer after washing cells with PBS.
Rat and human hepatic stellate cells and rat liver tissue were fixed in 4% paraformaldehyde in PBS or 10% formalin in PBS, respectively, before being stained with Giemsa. DNA fragmentation was examined by labeling of 3′-OH DNA ends by the enzymatic addition of digoxygenin-labeled deoxyuridine triphosphate (dUTP) using terminal deoxynucleotidyl transferase using a kit from Boehringer essentially as described by the manufacturer. Rat liver tissue sections were pretreated with diethyl pyrocarbonate as described previously (Stahelin et al., J. Clin. Pathol. Mol. Pathol. (1998) 51:204-208) to reduce nonspecific reaction.

[3] = target: T1, recombinant human caspase-3 (Homo sapiens, UniProt P42574); assay: Direct effect on recombinant caspase-3; assay type: biochemical; settings: TIMP-1 285-2850 ng/ml, 1 hour preincubation
T1 construct: purchased Calbiochem
T1 sequence (P42574 29-175 limits assumed): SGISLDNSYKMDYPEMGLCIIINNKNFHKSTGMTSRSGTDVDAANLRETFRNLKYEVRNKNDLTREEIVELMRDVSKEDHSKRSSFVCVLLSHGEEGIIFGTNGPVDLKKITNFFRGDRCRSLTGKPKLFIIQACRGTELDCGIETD
T1 sequence (P42574 176-277 limits assumed): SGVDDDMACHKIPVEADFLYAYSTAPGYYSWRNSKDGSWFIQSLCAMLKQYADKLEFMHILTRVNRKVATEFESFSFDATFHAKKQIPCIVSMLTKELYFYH
Method: Apoptosis was quantified by a colorimetric assay for caspase-3 activity (Promega) according to the manufacturer's instructions.
To exclude a direct effect of TIMP-1 on caspase-3 activity, recombinant human caspase-3 (Calbiochem) was incubated with TIMP-1 in varying concentrations (285-2850 ng/ml) for 1 hour before caspase-3 substrate was added to the reaction.

hepatic stellate cells [4] = assay: Nerve growth factor induced apoptosis of hepatic stellate cells; assay type: cell-based; settings: NGF 100 ng/ml, serum-free; TIMP-1 142.5 ng/ml
Method: Apoptosis of hepatic stellate cells was induced by absolute serum deprivation, cycloheximide treatment (Issa et al., Gut (2001) 48: S48-S57), or exposure to nerve growth factor as previously described (Trim et al., Am. J. Pathol., (2000) 156, 1235-1243). Hepatic stellate cells were cultured in 24-well tissue culture plates. Rat and human hepatic stellate cells were exposed to proapoptotic stimuli with and without recombinant TIMP-1 (Biogenesis, Poole, UK) and other manipulations as detailed below. Following a 4 hour incubation at 37° C., nuclear morphology was assessed by adding acridine orange to each well (final concentration 1 μg/ml) and observing the cells under blue fluorescence. The total number of apoptotic bodies was counted, and any apoptotic bodies floating in the supernatant were included by racking up the objective lens. The total number of cells per field was counted, and an apoptotic index was calculated. Each condition was performed in duplicate, and three high power fields were counted for each well. […] To examine for autocrine effects, hepatic stellate cells were incubated for 18 hours with azide-free polyclonal neutralizing antibodies to TIMP-1 and a nonimmune IgG control (Santa Cruz Biotechnology, Inc., Santa Cruz, Calif.), and responses were assessed by acridine orange staining and counting. […]

hepatic stellate cells [5] = assay: TUNEL staining of cycloheximide-treated hepatic stellate cells; assay type: cell-based; settings: 50 μM cycloheximide 18 h; TIMP-1 100 ng/ml
Method: Hepatic stellate cells were cultured on glass chamber slides and then exposed to 50 μM cycloheximide for 18 h with and without TIMP-1 (100 ng/ml). Slides were then stained for DNA fragmentation characteristic of apoptosis by the TUNEL reaction as previously described (Iredale et al., J. Clin. Invest., (1998) 102, 538-549) with the modifications recently described to reduce false positively (Stahelin et al., Mol. Pathol., (1998) 51, 204-208). Each slide was then analyzed by a blinded observer who counted the number of TUNEL-positive apoptotic figures and the TUNEL-negative cells over 10 high power fields for each condition.
A further pathognomonic feature of apoptosis is the fragmentation of DNA into oligonucleosomal lengths (Evan et al., Cell (1992) 69: 119-128). Fragmented DNA can be identified by the TUNEL technique, which can therefore be used to further quantify the apoptotic response of hepatic stellate cells in the presence and absence of cycloheximide. To assess DNA fragmentation activated hepatic stellate cells were therefore induced to undergo apoptosis by cycloheximide treatment in the presence and absence of TIMP-1 and the number of TUNEL positive cells assessed. […] As a control cells which were treated with serum alone were analyzed. […]

Compound | increase in caspase 3 activity [1] [fold] | DNA cleavage by propidium iodide or TUNEL staining [2] | cleavage of DNA to oligonucleosomal-length fragments [2] | direct effect on caspase-3 activity [3] | apoptosis induced by exposure to NGF (hepatic stellate cells [4]) | cells containing fragmented DNA (TUNEL) (hepatic stellate cells [5])
CN1C(=O)[C@]23CC4=CC=C[C@H](O)[C@H]4N2C(=O)[C@@]1(CO)SS3 [gliotoxin] | 7.6 | DNA cleavage was detected | did not cleave their DNA to oligonucleosomal-length fragments |  |  | 
TIMP-1: recombinant tissue inhibitor of matrix metalloproteases 1 (Biogenesis) |  |  |  | did not reduce caspase-3 activity directly | significantly inhibited | significantly reduced numbers of cells containing fragmented DNA
